Measured values published in patent US10793558B2, “Quinoline oxadiazoles as cytoprotective agents” (priority 2015, dated 2020).

Tests used:
CSM14.1 neuronal cells = test: Cell Survival Assay (thapsigargin-treated CSM14.1 neuronal cells, CELLTITER-GLO luminescence); format: cell-based; conditions: CSM14.1 cells, about 15 μM thapsigargin, overnight (about 16 to 24 hrs), 2 hrs preincubation
Procedure: CSM14.1 neuronal cells were maintained in Complete Medium at 32° C.; wherein the Complete Medium contained Dulbecco's modified eagle medium (DMEM) with 10% fetal bovine serum (FSB), 1% L-glutamine, 100 IU/mL penicillin, and 100 μg/mL streptomycin. […] Seeding was performed using a MultiDrop Combi reagent broadcaster. The plates were incubated overnight at 32° C. A test compound was prepared by 2-fold serial dilution in 100% DMSO using a BIOMEK® 2000 liquid handler (Beckman Coulter). A dose-response curve containing 10 concentrations of the test compound was obtained. Using a BIOMEK® FX liquid handler (Beckman Coulter), 2.5 μL of the test compound was transferred from the 100% DMSO serial dilution plate to an intermediate plate containing 47.5 μL of DMEM Assay Medium containing 2% FBS, 100 IU/mL penicillin, and 100 μg/mL streptomycin and mixed. […] The tissue culture media (4 μL) containing vehicle only was transferred manually to each control cell using a 16 channel electronic pipette. […] High luminescence indicates cell survival.

HEK293 cells; N2a cells = test: Cell Rescue Assay: Protection against Thapsigargin (TG)-induced Cell-death (ALAMARBLUE); format: cell-based, human (HEK293); mouse (N2a); conditions: compound 20 μM, 2 hrs before thapsigargin (15 μM for HEK293 cells and 1 μM for N2a cells), 24 hrs; cell line not given; read-out: Cell Survival %
Procedure: Protection against Thapsigargin (TG)-induced Cell-death. Human embryonic kidney (HEK293) cells were grown in Dulbecco's Modified Eagle's Medium (DMEM) with 10% FBS and 1% antibiotic antimycotic solution (ABAM). Mouse neuroblastoma (N2a) cells were grown in 1:1 DMEM:OPTI-MEM® with 5% FBS and 1% ABAM. All cells were grown in 10% CO2 in a humidified environment of the incubator. Cells grown in 96-well plates were exposed to a test compound (20 μM) for 2 hrs before addition of thapsigargin (15 μM for HEK293 cells and 1 μM for N2a cells) to induce ER stress. After incubation in cell-culture incubator for 24 hrs, ALAMARBLUE® regent (10% v/v) was added to the wells. Fluorescence reading was taken 2 hrs after the addition of the ALAMARBLUE® regent. Cell-viability was calculated as a percentage of relative fluorescence unit (RFU) compared to control. […] The biological results are summarized in Table 2, where each compound was tested at 20 μM and where A represents a viability greater than 50%, B represents a viability greather than 10% and less than 50%, C represents a value below 10%.

Ob/ob mice = test: Effect of a SERCA Agonist on the Level of Blood Glucose in Ob/ob mice; format: in vivo, mouse; conditions: 50 mg/kg i.p. once a day, 5 days, fasting glucose at baseline and 4 days after administration
Procedure: Ob/ob mice (10 weeks old, n=7) were intraperitoneally (i.p.) injected with 100 μL of a solution containing 0 (vehicle) or 50 mg/kg of a test compound once a day for a total of 5 days. Fasting glucose was measured at baseline and 4 days after the administration of the test compound. Glucose levels were measured in blood samples drawn from the tail vein using a handheld glucose sensor. Compound effects on blood glucose are shown in Table 5 where A represents a 10-20% reduction in blood glucose, B represents a 21-30% reduction in blood glucose, and C represents a greater than 30% reduction in blood glucose levels.

SERCA = test: Ca-ATPase Assay (NADH-linked, enzyme-coupled ATPase assay, microsomal preparations from HEK 293 cells); format: biochemical, human; conditions: pH 7.0, 5 mM ATP, relative to controls
Procedure: A Ca-ATPase assay was performed using microsomal preparations from HEK 293 cells at a series of calcium concentrations corresponding to the physiological range, relative to controls. The ATP hydrolysis rate was measured over a range of calcium concentrations in the presence of test compounds using an NADH-linked, enzyme-coupled ATPase assay adapted for 96-well microplates, with Vmax determined by fitting the ATPase calcium-dependence to the Hill function. Each well contained 2 μg or 7 μg of SR vesicles (optimized for skeletal or cardiac SR, respectively), 50 mM MOPS (pH 7.0), 100 mM KCl, 5 mM MgCl2, 1 mM EGTA, 0.2 mM NADH, 1 mM phosphoenol pyruvate, 5 IU pyruvate kinase, 5 IU lactate dehydrogenase, and 3.5 μg/mL A23187 (a calcium ionophore). CaCl2 was added to set free [Ca^2+] to the specific values. The assay was started upon addition of ATP at a final concentration of 5 mM, and read in a SpectraMax Plus microplate spectrophotometer. The results are summarized in Table 4, where A represents an increase in SERCA Vmax greater than 50% and B represents a value greater than 10% and less than 50%.

Row | Structure (SMILES) | EC50 (CSM14.1 neuronal cells) [µM] | viability at 20 µM (HEK293 cells; N2a cells) [%] | Glucose level reduction (Ob/ob mice) | SERCA Vmax Increase (SERCA)
1 | Cc1ccc2cccc(-c3nc(-c4ccc(OC(C)C)cc4)no3)c2n1 [Compound B1, 3-(4-Isopropoxyphenyl)-5-(2-methylquinolin-8-yl)-1,2,4-oxadiazole] | 1 to 10 | 10 to 50 | B (a 21-30% reduction in blood glucose) | 
2 | Cc1ccc2cccc(-c3nc(-c4ccc(Br)s4)no3)c2n1 [Compound B2, 3-(5-Bromothiophen-2-yl)-5-(2-methylquinolin-8-yl)-1,2,4-oxadiazole] | 1 to 10 | 10 to 50 | B (a 21-30% reduction in blood glucose) | 
3 | Cc1ccc2cccc(-c3nc(-c4cc(Br)cs4)no3)c2n1 [Compound B3, 3-(4-Bromothienyl-2-yl)-5-(2-methylquinolin-8-yl)-1,2,4-oxadiazole] | 1 to 10 | > 50 | A (a 10-20% reduction in blood glucose) | 
4 | Cc1ccc2cccc(-c3nc(-c4ccc(Cl)cc4)no3)c2n1 [Compound B4, 3-(4-Chlorophenyl)-5-(2-methylquinolin-8-yl)-1,2,4-oxadiazole] | < 1 | > 50 | C (a greater than 30% reduction in blood glucose levels) | A (an increase in SERCA Vmax greater than 50%)
